Results as given in ChEMBL document CHEMBL1201862, “PubChem BioAssay data set” (2004).
Calls of active or inactive are those of the source.

Assays:
[1] = biological target: T1, Induced myeloid leukemia cell differentiation protein Mcl-1 (Homo sapiens, UniProt Q07820); test: blockers of MCL1 binding to BIM peptide – biochemical, fluorescence polarization, BIM-BH3 peptide, 1536-well, dose response (AID 2217)
Large T antigen = Large T antigen (Simian virus 40, UniProt P03070); format: functional, Betapolyomavirus macacae;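 note: Confirmatory-stage PubChem screen for compounds that inhibit SV40 T antigen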
Sequence of Large T antigen (P03070 whole entry): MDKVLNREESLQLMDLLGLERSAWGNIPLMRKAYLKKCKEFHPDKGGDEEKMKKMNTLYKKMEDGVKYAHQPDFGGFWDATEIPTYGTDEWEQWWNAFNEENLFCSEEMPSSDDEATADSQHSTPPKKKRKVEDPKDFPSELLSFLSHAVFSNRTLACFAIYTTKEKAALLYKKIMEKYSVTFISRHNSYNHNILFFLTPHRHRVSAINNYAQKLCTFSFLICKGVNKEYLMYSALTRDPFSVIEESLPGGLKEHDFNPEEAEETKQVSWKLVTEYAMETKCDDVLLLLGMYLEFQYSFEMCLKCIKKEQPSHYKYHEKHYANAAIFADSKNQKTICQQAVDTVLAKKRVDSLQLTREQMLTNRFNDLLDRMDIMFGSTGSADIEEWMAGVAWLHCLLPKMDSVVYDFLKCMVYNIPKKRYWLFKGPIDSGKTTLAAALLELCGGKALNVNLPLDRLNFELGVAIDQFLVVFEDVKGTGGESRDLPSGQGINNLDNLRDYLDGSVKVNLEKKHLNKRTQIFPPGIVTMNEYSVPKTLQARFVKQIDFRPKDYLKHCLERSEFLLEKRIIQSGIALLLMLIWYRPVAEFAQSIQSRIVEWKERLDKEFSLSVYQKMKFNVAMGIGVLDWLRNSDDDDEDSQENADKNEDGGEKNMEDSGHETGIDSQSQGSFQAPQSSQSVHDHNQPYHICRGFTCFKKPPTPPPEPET

[2] = biological target: Protein disulfide-isomerase (Homo sapiens, UniProt P07237); test: inhibition of PDI-driven insulin aggregation – biochemical, turbidity, absorbance, cherry-picked samples, dose response (AID 602350); format: functional
Sequence of Protein disulfide-isomerase (P07237 whole entry): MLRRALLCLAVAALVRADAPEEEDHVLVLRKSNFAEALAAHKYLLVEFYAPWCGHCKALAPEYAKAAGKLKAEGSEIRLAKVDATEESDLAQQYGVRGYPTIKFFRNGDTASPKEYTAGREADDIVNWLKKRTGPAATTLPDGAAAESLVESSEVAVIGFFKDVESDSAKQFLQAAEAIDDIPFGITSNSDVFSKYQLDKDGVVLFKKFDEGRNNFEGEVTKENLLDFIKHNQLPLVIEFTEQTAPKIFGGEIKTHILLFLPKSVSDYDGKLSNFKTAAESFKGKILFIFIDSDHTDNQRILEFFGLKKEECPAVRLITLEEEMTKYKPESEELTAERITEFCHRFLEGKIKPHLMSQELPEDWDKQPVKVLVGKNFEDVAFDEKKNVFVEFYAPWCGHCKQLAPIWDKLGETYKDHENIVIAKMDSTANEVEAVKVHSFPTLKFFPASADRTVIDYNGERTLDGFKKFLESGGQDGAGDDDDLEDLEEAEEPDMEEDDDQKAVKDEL

[3] = biological target: T1, Induced myeloid leukemia cell differentiation protein Mcl-1; format: functional
Leucine aminopeptidase = biological target: T2, Leucine aminopeptidase (Plasmodium falciparum 3D7, UniProt Q8IL11); test: P. falciparum M17LAP inhibitors, primary screen, biochemical, fluorogenic H-Leu-NHMec substrate, 1536-well (AID 1619); format: functional
T2 sequence (Q8IL11 whole entry): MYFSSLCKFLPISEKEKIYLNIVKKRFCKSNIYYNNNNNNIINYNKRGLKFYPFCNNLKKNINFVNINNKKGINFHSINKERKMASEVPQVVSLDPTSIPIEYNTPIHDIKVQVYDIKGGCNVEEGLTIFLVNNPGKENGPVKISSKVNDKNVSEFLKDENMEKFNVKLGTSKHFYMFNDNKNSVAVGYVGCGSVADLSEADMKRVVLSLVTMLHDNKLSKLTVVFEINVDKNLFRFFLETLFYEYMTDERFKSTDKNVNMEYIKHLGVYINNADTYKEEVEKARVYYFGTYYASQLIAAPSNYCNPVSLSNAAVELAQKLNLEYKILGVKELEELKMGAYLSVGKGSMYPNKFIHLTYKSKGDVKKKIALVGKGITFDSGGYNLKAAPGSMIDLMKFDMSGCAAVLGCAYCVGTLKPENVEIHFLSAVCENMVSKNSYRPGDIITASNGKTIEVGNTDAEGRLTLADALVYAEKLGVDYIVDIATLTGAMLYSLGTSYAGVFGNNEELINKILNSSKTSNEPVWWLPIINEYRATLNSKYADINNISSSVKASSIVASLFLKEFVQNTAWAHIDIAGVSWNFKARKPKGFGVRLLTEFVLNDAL

Bcl-2-like protein 1 = Bcl-2-like protein 1 (Homo sapiens, UniProt Q07817); test: blockers of BCLXL peptide binding – biochemical, fluorescence polarization, 1536-well, selectivity assay for MCL1 inhibitor project, dose response (AID 2218)
Sequence of Bcl-2-like protein 1 (Q07817 whole entry): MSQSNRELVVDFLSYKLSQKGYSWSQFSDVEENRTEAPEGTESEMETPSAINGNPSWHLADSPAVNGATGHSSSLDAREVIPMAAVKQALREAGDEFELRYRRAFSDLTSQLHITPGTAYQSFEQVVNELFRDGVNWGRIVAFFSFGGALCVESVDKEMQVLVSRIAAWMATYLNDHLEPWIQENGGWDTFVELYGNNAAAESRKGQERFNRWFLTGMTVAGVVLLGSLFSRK

[4] = biological target: DNA (cytosine-5)-methyltransferase 1 (Homo sapiens, UniProt P26358); test: inhibition of DNA methylation by DNMT1 – biochemical, fluorescent molecular beacon, confirmation (AID 602386); format: functional
Cysteine protease ATG4B = biological target: T3, Cysteine protease ATG4B (Homo sapiens, UniProt Q9Y4P1); format: functional;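 note: Fluorescence-based dose-response confirmation assay measuring inhibition of ATG4B activity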
T3 sequence (Q9Y4P1 whole entry): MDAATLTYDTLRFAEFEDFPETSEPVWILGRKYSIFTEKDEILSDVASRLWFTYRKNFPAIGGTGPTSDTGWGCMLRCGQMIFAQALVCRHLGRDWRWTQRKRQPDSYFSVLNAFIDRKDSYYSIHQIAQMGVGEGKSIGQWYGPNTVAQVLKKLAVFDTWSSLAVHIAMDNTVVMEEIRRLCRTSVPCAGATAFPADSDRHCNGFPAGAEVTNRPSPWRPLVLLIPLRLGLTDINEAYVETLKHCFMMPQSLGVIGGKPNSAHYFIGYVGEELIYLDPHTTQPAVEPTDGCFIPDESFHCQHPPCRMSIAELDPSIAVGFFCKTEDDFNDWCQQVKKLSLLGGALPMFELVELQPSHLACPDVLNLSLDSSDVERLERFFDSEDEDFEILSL

[5] = biological target: T4, RNA-binding protein pos-1 (Caenorhabditis elegans, UniProt G5EF15); test: disruptors of C. elegans POS-1 RNA interaction – biochemical, fluorescence polarization, dose response (AID 1964);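 note: purified POS-1 fused to maltose binding protein made in E. coli; potency of compounds blocking POS-1 binding to fluorescent RNA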
T4 sequence (G5EF15 whole entry): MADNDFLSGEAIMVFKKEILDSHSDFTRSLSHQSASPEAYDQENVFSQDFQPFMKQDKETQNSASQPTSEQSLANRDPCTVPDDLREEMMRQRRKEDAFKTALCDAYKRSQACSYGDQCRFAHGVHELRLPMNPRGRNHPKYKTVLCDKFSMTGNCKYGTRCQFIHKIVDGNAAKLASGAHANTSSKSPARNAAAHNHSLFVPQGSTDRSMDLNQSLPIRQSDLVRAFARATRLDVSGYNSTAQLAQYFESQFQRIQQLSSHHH

SUMO-activating enzyme [6] = biological target: T5, SUMO-activating enzyme (Homo sapiens, UniProt Q9UBT2); test: blockers of UBC9-mediated SUMO conjugation – biochemical, AlphaScreen, SUMOylation inhibitor project, confirmation (AID 2018); format: functional
T5 sequence (Q9UBE0 whole entry): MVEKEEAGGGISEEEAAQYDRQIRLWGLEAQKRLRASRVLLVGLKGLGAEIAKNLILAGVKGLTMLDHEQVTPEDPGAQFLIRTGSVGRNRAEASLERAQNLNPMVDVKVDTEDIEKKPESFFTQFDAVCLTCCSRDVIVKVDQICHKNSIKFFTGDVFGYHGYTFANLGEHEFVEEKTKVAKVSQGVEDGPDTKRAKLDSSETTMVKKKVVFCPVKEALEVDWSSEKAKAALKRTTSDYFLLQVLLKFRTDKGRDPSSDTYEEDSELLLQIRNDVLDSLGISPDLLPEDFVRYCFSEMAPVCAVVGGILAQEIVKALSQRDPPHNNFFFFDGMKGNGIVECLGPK
T5 sequence (Q9UBT2 whole entry): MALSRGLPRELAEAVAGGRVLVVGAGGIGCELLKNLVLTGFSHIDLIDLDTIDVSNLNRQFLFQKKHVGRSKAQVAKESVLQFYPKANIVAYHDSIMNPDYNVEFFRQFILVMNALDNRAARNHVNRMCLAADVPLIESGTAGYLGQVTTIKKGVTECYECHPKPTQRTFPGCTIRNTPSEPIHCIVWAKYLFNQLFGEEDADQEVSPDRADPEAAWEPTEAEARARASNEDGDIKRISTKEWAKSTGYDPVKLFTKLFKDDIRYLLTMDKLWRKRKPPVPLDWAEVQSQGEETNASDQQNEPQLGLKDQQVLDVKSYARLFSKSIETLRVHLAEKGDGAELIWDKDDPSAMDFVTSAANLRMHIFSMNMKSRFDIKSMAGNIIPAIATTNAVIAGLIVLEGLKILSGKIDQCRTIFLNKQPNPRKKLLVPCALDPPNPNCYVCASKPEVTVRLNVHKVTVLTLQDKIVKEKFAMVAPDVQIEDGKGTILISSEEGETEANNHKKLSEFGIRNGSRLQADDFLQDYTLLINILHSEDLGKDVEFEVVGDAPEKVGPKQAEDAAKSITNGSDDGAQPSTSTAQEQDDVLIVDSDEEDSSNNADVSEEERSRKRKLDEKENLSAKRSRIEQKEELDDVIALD

Nonstructural protein 1 = Nonstructural protein 1 (Influenza A virus, UniProt Q194T2); format: functional, Influenza A virus (A/California/07/2009(H1N1))
Sequence of Nonstructural protein 1 (Q194T2 whole entry): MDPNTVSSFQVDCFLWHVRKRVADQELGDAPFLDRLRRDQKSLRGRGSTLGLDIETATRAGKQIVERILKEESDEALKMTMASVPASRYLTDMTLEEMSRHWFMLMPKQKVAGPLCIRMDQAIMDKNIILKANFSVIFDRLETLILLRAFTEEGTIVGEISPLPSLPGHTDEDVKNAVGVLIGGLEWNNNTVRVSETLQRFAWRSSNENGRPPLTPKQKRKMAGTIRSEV

Genome polyprotein = Genome polyprotein (dengue virus type 2, UniProt P29990); test: flavivirus cap methylation enzyme inhibition – biochemical, confirmation dose response, primary screen (AID 588689); format: functional
Sequence of Genome polyprotein (P29990 2492-3391 limits assumed): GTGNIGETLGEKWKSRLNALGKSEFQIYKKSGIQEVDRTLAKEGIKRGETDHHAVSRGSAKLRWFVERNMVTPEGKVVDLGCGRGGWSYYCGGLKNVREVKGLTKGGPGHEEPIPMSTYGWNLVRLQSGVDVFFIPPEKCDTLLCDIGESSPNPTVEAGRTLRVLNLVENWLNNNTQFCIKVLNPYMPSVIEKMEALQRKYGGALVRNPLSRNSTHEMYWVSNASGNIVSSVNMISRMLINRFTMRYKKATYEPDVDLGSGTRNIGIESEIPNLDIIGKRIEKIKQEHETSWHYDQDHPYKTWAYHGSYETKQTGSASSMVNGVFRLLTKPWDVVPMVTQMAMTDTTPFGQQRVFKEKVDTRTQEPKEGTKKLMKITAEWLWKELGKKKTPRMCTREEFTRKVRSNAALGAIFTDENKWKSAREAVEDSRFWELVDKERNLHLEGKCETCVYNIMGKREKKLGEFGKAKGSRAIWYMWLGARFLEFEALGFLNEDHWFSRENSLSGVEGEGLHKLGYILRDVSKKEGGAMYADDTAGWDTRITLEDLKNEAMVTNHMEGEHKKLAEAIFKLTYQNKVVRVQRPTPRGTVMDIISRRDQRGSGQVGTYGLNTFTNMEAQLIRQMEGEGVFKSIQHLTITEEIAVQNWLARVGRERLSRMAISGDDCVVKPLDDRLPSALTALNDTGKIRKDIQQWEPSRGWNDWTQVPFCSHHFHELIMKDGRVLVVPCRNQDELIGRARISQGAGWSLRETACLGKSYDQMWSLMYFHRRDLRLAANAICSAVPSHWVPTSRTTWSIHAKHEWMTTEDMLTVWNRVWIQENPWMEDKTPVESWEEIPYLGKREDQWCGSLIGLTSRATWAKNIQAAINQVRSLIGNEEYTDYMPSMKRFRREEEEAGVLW

[7] = biological target: T6, Zinc finger protein mex-5 (Caenorhabditis elegans, UniProt Q9XUB2); test: potency of MEX-5 RNA-binding blockers – biochemical, C. elegans, fluorescence polarization, dose response (AID 1960)
T6 sequence (Q9XUB2 whole entry): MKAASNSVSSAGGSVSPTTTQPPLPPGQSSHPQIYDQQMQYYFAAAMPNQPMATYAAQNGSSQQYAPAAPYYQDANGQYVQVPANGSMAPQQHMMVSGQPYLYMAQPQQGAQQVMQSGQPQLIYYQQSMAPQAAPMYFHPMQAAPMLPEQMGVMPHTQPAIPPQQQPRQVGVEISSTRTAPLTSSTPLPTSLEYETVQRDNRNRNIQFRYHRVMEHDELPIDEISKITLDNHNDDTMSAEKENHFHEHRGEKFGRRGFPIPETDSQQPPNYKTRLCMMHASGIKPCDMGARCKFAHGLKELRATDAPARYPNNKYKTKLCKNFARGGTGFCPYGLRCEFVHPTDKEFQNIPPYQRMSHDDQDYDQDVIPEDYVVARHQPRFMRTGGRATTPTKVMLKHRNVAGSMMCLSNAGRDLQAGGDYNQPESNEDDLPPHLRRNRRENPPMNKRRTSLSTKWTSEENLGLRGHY

SUMO-activating enzyme [8] = biological target: T5, SUMO-activating enzyme; test: blockers of SAE1/SAE2–UBC9 SUMO transfer – biochemical, HTRF, uHTS, primary screen (AID 2006); format: protein-complex assay
Phospholipase A2 = Phospholipase A2 (Homo sapiens, UniProt P04054); format: functional;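 note: confirmatory dose-response counterscreen on phospholipase A2, testing hits that came from an ultra-high-throughput screen for ATG4B inhibitors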
Sequence of Phospholipase A2 (P04054 whole entry): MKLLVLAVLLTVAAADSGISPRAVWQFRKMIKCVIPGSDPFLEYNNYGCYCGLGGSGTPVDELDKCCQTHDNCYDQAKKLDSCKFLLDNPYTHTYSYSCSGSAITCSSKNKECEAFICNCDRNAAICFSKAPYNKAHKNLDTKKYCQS

[9] = RAM pathway signaling blockade in S. cerevisiae – dose response (AID 1307); format: functional
[10] = Trypanosoma cruzi growth suppression in host cells – NIH3T3 host cells, beta-gal luminescence, confirmation (AID 2044); format: functional, cell-based;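 note: intracellular parasites grown in NIH/3T3 mouse fibroblasts as host cells; luminescent beta-galactosidase reporter signal from transgenic T. cruzi replicating inside host cells; inhibitors lower the luminescence signal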
[11] = toxicity toward HEK293 cells – cell-based, dry powder samples, cytotoxicity control, dose response (AID 720567); format: functional
[12] = HEK-293T viability loss after treatment – luminescence, T-cell screen hits, cytotoxicity control for TCR NF-kB inhibitor project, dose response (AID 489026); format: functional, cell-based;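 note: cells exposed to compound about 14 hours before the viability readout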
BJ [13] = test: BJ-TERT fibroblast viability loss – cell-based, RAS-independent, luminescence, dose response (AID 1933); format: functional; conditions: Homo sapiens
[14] = NIH3T3 cell viability loss – ATP luminescence, mouse fibroblasts, counter-screen, dose response (AID 2010); format: functional, cell-based;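 note: cells exposed to compound for about 90 hours before reading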
[15] = DRD fibroblast viability loss – cell-based, non-viral oncogenic, luminescence, dose response (AID 1934); format: functional; conditions: Homo sapiens
BJ [16] = test: cells; format: functional, cell-based; conditions: Homo sapiens
[17] = Luminescence-based dose response cell-based high throughput screening assay for cytotoxic compounds using the IEC-6 intestinal epithelial cell line. [Related pubchem assays: 1858 (Summary AID.), 1825 (Counterscreen.), 1907 (Confirmation screen.)]; format: functional
BJ [18] = test: BJ-TERT-LT-ST fibroblast viability loss – cell-based, RAS-independent, luminescence, dose response (AID 1935); format: functional; conditions: Homo sapiens;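 note: BJ fibroblasts immortalized with TERT plus LT and ST oncogenes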
[19] = biological target: Diphosphomevalonate decarboxylase (Streptococcus pneumoniae serotype 2 (strain D39 / NCTC 7466), UniProt Q9FD53); test: diphosphomevalonate decarboxylase inhibitor confirmation – biochemical, cuvette format, coupled NADH fluorescence (AID 1028); format: functional
Sequence of Diphosphomevalonate decarboxylase (Q9FD53 whole entry): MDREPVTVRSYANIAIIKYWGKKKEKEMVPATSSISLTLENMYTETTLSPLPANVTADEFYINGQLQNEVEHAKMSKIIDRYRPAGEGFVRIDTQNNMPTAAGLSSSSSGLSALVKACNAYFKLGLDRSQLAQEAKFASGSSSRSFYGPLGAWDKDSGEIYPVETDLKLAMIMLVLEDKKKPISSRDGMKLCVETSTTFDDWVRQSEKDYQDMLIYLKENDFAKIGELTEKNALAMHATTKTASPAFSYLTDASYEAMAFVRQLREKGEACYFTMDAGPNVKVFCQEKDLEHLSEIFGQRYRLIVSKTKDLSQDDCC

T1 sequence (Q07820 whole entry): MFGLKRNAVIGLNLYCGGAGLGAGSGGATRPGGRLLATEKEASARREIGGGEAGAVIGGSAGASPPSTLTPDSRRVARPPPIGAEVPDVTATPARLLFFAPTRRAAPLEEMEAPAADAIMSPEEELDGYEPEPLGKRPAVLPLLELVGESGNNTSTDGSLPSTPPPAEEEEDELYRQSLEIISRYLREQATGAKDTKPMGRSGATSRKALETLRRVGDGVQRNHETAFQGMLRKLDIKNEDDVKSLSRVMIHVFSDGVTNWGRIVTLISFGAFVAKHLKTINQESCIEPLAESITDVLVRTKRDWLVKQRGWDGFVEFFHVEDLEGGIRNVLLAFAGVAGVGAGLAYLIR

SMILES: COc1cccc(NS(=O)(=O)c2ccc3c(c2)C2C=CCC2C(c2ccc(C(=O)O)cc2)N3)c1 (stereo unspecified)
- IC50 [1]: 18.9 µM (not active)
- IC50 (Large T antigen): > 100 µM (active)
- AC50 [2]: 15.8 µM (active)
- IC50 [3]: 2.32 µM (active)
- IC50 (Leucine aminopeptidase): 15.8 µM (active)
- IC50 (Bcl-2-like protein 1): 64.9 µM (not active)
- IC50 [4]: 7.94 µM (active)
- IC50 (Cysteine protease ATG4B): 10.7 µM (active)
- EC50 [5]: 18 µM (inconclusive)
- IC50 (SUMO-activating enzyme [6]): 2.15 µM (active)
- IC50 (Nonstructural protein 1): > 100 µM (active)
- IC50 (Genome polyprotein): 67 µM (active)
- EC50 [7]: 12.5 µM (active)
- IC50 (SUMO-activating enzyme [8]): 9.5 µM (active)
- IC50 (Phospholipase A2): 10.6 µM (active)

SMILES: CN1/C(=C\C=C2/C(=O)Oc3ccccc3C2=O)C(C)(C)c2ccccc21
- IC50 [9]: 178 µM (active)

SMILES: CCn1c2ccccc2c2cc(NC(=O)c3cc(OC)c(OC)c(OC)c3)ccc21
- EC50 [10]: 1 µM (active)
- AC50 [11]: 25.6 µM (active)
- IC50 [12]: > 80 µM (inactive)
- EC50 (BJ [13]): 0.184 µM (active)
- EC50 [14]: 0.121 µM (active)
- EC50 [15]: 0.284 µM (inconclusive)
- EC50 (BJ [16]): 0.745 µM (inconclusive)
- IC50 [17]: 0.534 µM (active)
- EC50 (BJ [18]): 0.165 µM (inconclusive)

SMILES: O=C(c1ccc(-n2sc3ccccc3c2=O)cc1)N1CCOCC1
- IC50 [19]: 13.1 µM (active)
